Assays:
S6 = S6 phosphorylation in L6 skeletal muscle cells (Western blot); type: cell-based; details: 100 nM, 1 hour; for phosphorylation of S6 (in words): FIG. 9
Method: (§1) The effect of the peptide of the present invention on muscles was confirmed. After culturing L6 skeletal muscle cells in a 6-well plate, the cells were starved with 0.5% FBS. Afterward, 100 nM of each peptide was treated for 1 hour, and proteins were collected and subjected to Western blot.

[1] = test system: adipocyte protein 2 (AP2); assay: AP2 gene expression in muscle tissue of db/db mouse model (RT-PCR); type: in vivo; details: muscle tissue of db/db mice, 2.5 mg/kg i.p. daily, 8 weeks
Method: (§2) The obesity-improving effect of a peptide was confirmed by inducing body weight gain in an animal model in which diabetes was induced due to the defect in a leptin receptor. Specifically, C57BLKS/J-db/db 5-week-old male mice were purchased from the Central Laboratory Animal Inc., provided with a normal diet for one week, and used after an acclimation period. The breeding environment was maintained at 18 to 24° C. and a humidity of 50 to 60%, and during the acclimation period and the experimental period, free feeding was implemented with free access to normal feed and water.
(§3) The mice that underwent the acclimation period were divided into a control and a peptide-treated group. The control group was administered PBS, and the peptide-treated group was administered Peptide No. 7 or 8 (2.5 mg/kg) intraperitoneally every day for a total of 8 weeks.
(§4) As a result of RT-PCR, it was confirmed that, by the treatment of Peptide No. 7 or 8, the expression of adipocyte protein 2 (AP2) and CCAAT enhancer binding protein α (C/EBPα) genes, which are involved in lipid accumulation, was reduced, and the expression of a peroxisome proliferator-activated receptor α (PPARα) gene, involved in fatty acid oxidation, was increased. […]

[2] = test system: peroxisome proliferator-activated receptor α (PPARα); assay: PPARα gene expression in muscle tissue of db/db mouse model (RT-PCR); type: in vivo; details: muscle tissue of db/db mice, 2.5 mg/kg i.p. daily, 8 weeks
Method: as §2, §3, §4

[3] = test system: CCAAT enhancer binding protein α (C/EBPα); assay: C/EBPα gene expression in muscle tissue of db/db mouse model (RT-PCR); type: in vivo; details: muscle tissue of db/db mice, 2.5 mg/kg i.p. daily, 8 weeks
Method: as §2, §3, §4

[4] = test system: Muscle RING Finger-1 (Murf-1); assay: Murf-1 gene expression in muscle tissue of db/db mouse model (RT-PCR); type: in vivo; details: muscle tissue of db/db mice, 2.5 mg/kg i.p. daily, 8 weeks
Method: as §2, §3, §4

FoxO1 = FoxO1 phosphorylation and total FoxO1 in L6 skeletal muscle cells (Western blot); type: cell-based; details: 100 nM, 1 hour
Method: as §1

Q: Which results are given for “AGSIREAGGAFGKREQAEEERYFR (listed as Homo sapiens) [No. 7]”?
A: phosphorylation of S6 (in words) (S6): increased; change in AP2 gene expression [1]: −52.5%; change in PPARα gene expression [2]: +94.1%; change in C/EBPα gene expression [3]: −18.6%; change in Murf-1 gene expression [4]: −90.1%

Q: How did the “increase of phosphorylation of the S6 protein” value (“increase” for short) (S6) turn out when “AQSREQLAALKK (listed as Homo sapiens) [No. 5]” was run?
A: The value was 494%.

Q: Which “increase” value (S6) does the source give for “EQAEEER (listed as Homo sapiens) [No. 2]” here?
A: Its value is 365%.

Q: How did the “increase” value (S6) turn out when “EQAEEERYFR (listed as Homo sapiens) [No. 4]” was run?
A: The value was 224%.

Q: How did the “phosphorylation of S6 (in words)” value (S6) turn out when “REAGGAFGKR (listed as Homo sapiens) [No. 3]” was run?
A: Its value is “increased”.

Q: “VDRGAGSIREAGGAFGKREQAEEERYFR (listed as Homo sapiens) [No. 8]” was tested. Which “increase” value (S6) did it give?
A: The value was 414%.

Q: What about the “change in AP2 gene expression” value [1] of the same substance?
A: The value was −54.7%.

Q: And the “change in PPARα gene expression” value [2]?
A: The value was “+12.9%”.

Q: And the “change in C/EBPα gene expression” value [3]?
A: The value was −45.5%.

Q: What about the “change in Murf-1 gene expression” value [4] of the same substance?
A: Its value is −36.0%.

Q: What does the source list for YFR (listed as Homo sapiens) [No. 1]?
A: increase of phosphorylation of the S6 protein (S6): 188%; expression level of total FoxO1 (FoxO1): decreased; phosphorylation of FoxO1 (FoxO1): increased

Q: How did the “phosphorylation of S6 (in words)” value (S6) turn out when “YFRAQSREQLAALKKHH (listed as Homo sapiens) [No. 6]” was run?
A: Its value is “increased”.
